Data: US9988423B2, “Organogels and emulsions for biological and non-biological applications” (Agency for Science, Technology and Research, priority 2012, dated 2018)
Residues, ends and D or L forms follow the SMILES beside them. No end group written: not given here.

Key:
[1] = Organogel formation (gelation) of peptides in organic solvents; assay type: physicochemical
Procedure: The exemplary peptides are Ac-ID-COOH (L) (dimer), Ac-IVD-COOH (L) (trimer) and Ac-LIVAGD-COOH (L) (hexamer). The organogels depicted in (C) are (1) Ac-ID-COOH (L) 10 mg/ml in ethyl acetate, (2) Ac-ID-COOH (L) 10 mg/ml in toluene, (3) Ac-IVD-COOH (L) 2 mg/ml in acetonitrile, (4) Ac-IVD-COOH (L) 2 mg/ml in ethyl acetate, (5) Ac-IVD-COOH (L) 5 mg/ml in acetone, (6) Ac-LIVAGD-COOH (L) 5 mg/ml in toluene, and (7) Ac-LIVAGD-COOH (L) 10 mg/ml in ethyl acetate.
The organogels depicted in (B) are (1) Ac-IVF-COOH (L) 5 mg/ml in ethyl acetate, (2) Ac-IVF-COOH (L) 5 mg/ml in acetone, (3) Ac-IVF-COOH (L) 5 mg/ml in acetonitrile, (4) Ac-IVF-COOH (L) 5 mg/ml in chloroform, (5) Ac-IVW-COOH (L) 5 mg/ml in acetone, (6) Ac-IVW-COOH (L) 5 mg/ml in ethyl acetate, and (7) Ac-LIVAGF-COOH (L) 5 mg/ml in acetone.
Gels with increasing concentration of Ac-IVD-COOH (L) were prepared in ethyl acetate. […] Organogels of 2 mg/ml and 5 mg/ml Ac-IVD-COOH (L) in ethyl acetate were analyzed by field emission scanning electron microscopy (FESEM). FIGS. 3B and 3C show the effect of the peptide concentration on organogelation for the hexamer Ac-LIVAGD-COOH (L) in acetonitrile or ethyl acetate.
The formulation of the peptide organogels depends on several factors, such as peptide concentration, polarity of the organic solvent, peptide sequence and type of solvent used (see FIG. 3 as well as FIGS. 10A-G and 11). For example, increasing the peptide concentration reduced the gelation time for the formulation of peptide organogels. Based on the experimental data disclosed herein and his general knowledge, a person skilled in the art would have no problems in figuring out suitable gelation conditions (e.g. a suitable organic solvent) for a given peptide. For example, a skilled person knows about the nature of an organic solvent with respect to its polarity or non-polarity. […] Obviously, there is interaction with the polar head group of the peptide. […] Also, it seems that planar configurations (benzene ring, C═O, nitrile) within the solvent helps to stabilize the gel. This might be explained with a more favourable interaction of p-, sp^2-, or sp-orbitals.

[2] = Stability of peptide emulsions in oil:water mixtures (phase separation); assay type: physicochemical; settings: 7.5 mg/ml peptide in oil:water 50:50, 80:20, 20:80; in comparison to controls
Procedure: 7.5 mg/ml Ac-IVD-COOH (L) were dissolved in solvent mixtures of oil:water (50:50, 80:20, 20:80).

effect of peptide concentration on organogelation ([1]; in acetonitrile, increasing concentration 1-20 mg/ml)	effect of peptide concentration on organogelation ([1]; in ethyl acetate, increasing concentration 5, 10, 20 mg/ml)	organogel formation in organic solvents [1]	effect of peptide concentration on organogelation ([1]; in ethyl acetate, concentrations above 10 mg/ml (1% w/v))	preferred gelation solvent ([1]; screening for quantum dot loading)	phase separation of emulsion [2]	Compound
increased size of the organogel	partial gelation	formed organogels	–	–	–	Ac-LIVAGD [Ac-LIVAGD-COOH (L)]
–	–	formed organogels	only partial gelation	gelled preferably in ethyl acetate	No phase separation	CC[C@H](C)[C@H](NC(C)=O)C(=O)N[C@H](C(=O)N[C@@H](CC(=O)O)C(=O)O)C(C)C [Ac-IVD-COOH (L)] (Ac-Ile-Val-Asp-OH)
–	–	formed organogels	–	–	–	CC[C@H](C)[C@H](NC(C)=O)C(=O)N[C@H](C(=O)N[C@@H](Cc1ccccc1)C(=O)O)C(C)C [Ac-IVF-COOH (L)]
–	–	formed organogels	–	–	–	CC[C@H](C)[C@H](NC(C)=O)C(=O)N[C@H](C(=O)N[C@@H](Cc1c[nH]c2ccccc12)C(=O)O)C(C)C [Ac-IVW-COOH (L)] (Ac-Ile-Val-Trp-OH)
